Active and inactive are the calls of the source. The rule behind the calls is not given here.
Legend:
[1] = target: 3',5'-cyclic-AMP phosphodiesterase 4D (Homo sapiens) (UniProt Q08499); assay: Activation of PDE4D2 (unknown origin) at 1 uM relative to control
[2] = target: Substance-P receptor (Homo sapiens) (UniProt P25103); assay: Activation of NK1 receptor (unknown origin) at 1 uM relative to control
BMDM [3] = assay: Inhibition of pyroptosis in LPS/nigericin induced […] cells assessed as reduction in […] at […] preincubated with LPS for 3 hrs followed by compound addition for 40 mins and further stimulated with nigericin for 40 mins by LDH assay; type: functional, cell-based; conditions: dose lower 0.25 µM, time 80.0 min
[4] = Drug distribution in C57BL/6 mouse plasma at 30 mg/kg, ip measured after 24 hrs by LC-MS/MS analysis; type: ADME, organism-based
Mus musculus [5] = assay: Anti-colitis activity against DSS-induced ulcerative colitis C57BL/6 mouse model assessed as improvement in body weight loss at 15 to 30 mg/kg, ip administered daily and measured upto 10 days; type: functional, organism-based; conditions: dose 15-30 mg/kg, time <= 10.0 day
Mus musculus [6] = assay: Anti-colitis activity against DSS-induced ulcerative colitis C57BL/6 mouse model assessed as alleviation of thickening of inherent base layer in colon at 15 to 30 mg/kg, ip administered daily and measured after 10 days by H and E staining based analysis; type: functional, organism-based; conditions: dose 15-30 mg/kg, time 10.0 day
BMDM [7] = assay: Induction of DNA damage in mouse BMDM cells assessed as DNA fragmentation at 1 uM measured after 24 hrs by fluorescence microscope based comet assay; type: functional, cell-based
[8] = target: Sodium-dependent noradrenaline transporter (Homo sapiens) (UniProt P23975); assay: Activation of NET (unknown origin) at 1 uM relative to control
Sodium-dependent noradrenaline transporter (Homo sapiens), sequence (P23975 whole entry): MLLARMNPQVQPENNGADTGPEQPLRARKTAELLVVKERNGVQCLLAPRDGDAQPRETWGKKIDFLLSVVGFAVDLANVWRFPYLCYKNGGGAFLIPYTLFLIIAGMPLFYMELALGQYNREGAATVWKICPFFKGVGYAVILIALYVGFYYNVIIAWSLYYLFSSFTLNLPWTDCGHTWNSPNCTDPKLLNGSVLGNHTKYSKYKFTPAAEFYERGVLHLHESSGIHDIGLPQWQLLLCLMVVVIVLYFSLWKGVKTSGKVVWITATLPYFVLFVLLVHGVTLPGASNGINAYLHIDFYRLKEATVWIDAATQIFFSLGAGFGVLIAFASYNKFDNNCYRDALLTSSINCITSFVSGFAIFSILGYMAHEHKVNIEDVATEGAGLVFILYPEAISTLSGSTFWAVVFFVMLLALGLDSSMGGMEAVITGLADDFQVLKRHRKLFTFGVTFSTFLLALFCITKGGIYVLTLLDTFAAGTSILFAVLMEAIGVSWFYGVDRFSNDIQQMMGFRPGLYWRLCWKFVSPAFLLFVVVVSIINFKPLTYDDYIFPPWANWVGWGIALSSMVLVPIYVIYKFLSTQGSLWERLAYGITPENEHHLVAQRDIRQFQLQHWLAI

[9] = Tmax in male C57BL/6 mouse at 30 mg/kg, ip measured upto 1440 mins by LC-MS/MS analysis; type: ADME, organism-based; conditions: in vivo
THP-1 [10] = assay: Inhibition of NLRP3-NEK7 interaction in LPS/nigericin stimulated human THP-1 cells at 1 uM preincubated with LPS for 3 hrs followed by compound addition for 40 mins and further stimulated with nigericin for 40 mins by immunoprecipitation analysis; type: cell-based; conditions: time 80.0 min
[11] = target: Substance-K receptor (Homo sapiens) (UniProt P21452); assay: Activation of NK2 receptor (unknown origin) at 1 uM relative to control
Substance-K receptor (Homo sapiens), sequence (P21452 whole entry): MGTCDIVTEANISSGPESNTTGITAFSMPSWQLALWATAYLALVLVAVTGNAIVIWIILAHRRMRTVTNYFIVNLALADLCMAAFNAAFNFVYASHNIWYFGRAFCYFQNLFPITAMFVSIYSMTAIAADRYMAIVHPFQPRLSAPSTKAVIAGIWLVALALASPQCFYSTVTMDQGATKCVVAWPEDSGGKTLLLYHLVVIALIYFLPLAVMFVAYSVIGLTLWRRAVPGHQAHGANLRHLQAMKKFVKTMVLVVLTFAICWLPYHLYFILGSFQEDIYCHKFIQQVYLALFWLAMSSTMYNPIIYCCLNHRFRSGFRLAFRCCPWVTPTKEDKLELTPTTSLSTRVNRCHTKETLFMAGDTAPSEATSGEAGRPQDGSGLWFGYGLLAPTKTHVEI

[12] = Half life in male C57BL/6 mouse at 30 mg/kg, ip measured upto 1440 mins by LC-MS/MS analysis; type: ADME, organism-based; conditions: in vivo
Cytochrome P450 2D6 = Cytochrome P450 2D6 (Homo sapiens, UniProt P10635); assay: Inhibition of CYP2D6 in human liver microsomes using dextromethorphan as substrate preincubated for 5 mins followed by NADPH addition and measured after 30 to 60 mins by LC-MS/MS analysis; type: ADME, Microsome
[13] = Genotoxicity in mouse BMDM cells; type: toxicity, cell-based
[14] = target: Cannabinoid receptor 2 (Homo sapiens) (UniProt P34972); assay: Activation of CB2 receptor (unknown origin) at 1 uM relative to control
Cannabinoid receptor 2 (Homo sapiens), sequence (P34972 whole entry): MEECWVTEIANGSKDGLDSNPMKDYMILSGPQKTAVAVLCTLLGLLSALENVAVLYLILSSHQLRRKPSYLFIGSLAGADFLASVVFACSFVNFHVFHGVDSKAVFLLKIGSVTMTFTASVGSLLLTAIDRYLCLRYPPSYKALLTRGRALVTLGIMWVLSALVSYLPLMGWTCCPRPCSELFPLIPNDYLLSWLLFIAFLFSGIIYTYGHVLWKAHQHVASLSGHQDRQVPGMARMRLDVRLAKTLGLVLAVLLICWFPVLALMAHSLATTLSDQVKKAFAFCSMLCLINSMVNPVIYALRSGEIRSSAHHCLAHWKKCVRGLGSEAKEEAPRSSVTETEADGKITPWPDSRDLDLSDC

[15] = target: Glucocorticoid receptor (Homo sapiens) (UniProt P04150); assay: Inhibition of GR receptor (unknown origin) at 1 uM relative to control
Glucocorticoid receptor (Homo sapiens), sequence (P04150 whole entry, the tested form may be a part): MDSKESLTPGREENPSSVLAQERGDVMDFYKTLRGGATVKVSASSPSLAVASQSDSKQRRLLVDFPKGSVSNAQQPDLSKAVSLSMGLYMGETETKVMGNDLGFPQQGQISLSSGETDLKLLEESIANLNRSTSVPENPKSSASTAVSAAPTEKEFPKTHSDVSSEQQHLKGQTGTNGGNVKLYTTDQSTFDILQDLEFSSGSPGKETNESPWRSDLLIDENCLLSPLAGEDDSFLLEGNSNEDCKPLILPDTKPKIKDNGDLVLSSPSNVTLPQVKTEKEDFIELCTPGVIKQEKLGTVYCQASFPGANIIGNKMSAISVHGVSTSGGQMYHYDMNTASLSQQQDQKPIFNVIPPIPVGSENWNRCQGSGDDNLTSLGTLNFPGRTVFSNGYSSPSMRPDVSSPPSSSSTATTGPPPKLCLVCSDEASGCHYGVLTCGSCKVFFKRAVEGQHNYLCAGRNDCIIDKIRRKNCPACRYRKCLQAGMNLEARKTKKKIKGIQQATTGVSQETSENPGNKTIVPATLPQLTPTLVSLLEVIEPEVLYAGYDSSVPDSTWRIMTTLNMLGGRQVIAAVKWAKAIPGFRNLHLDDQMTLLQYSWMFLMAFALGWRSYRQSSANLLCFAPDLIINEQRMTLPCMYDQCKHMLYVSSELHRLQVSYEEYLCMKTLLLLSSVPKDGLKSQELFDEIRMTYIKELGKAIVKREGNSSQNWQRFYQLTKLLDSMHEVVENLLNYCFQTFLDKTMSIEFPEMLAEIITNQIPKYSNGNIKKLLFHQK

[16] = target: NACHT, LRR and PYD domains-containing protein 3 (Mus musculus) (UniProt Q8R4B8); assay: Inhibition of NLRP3 inflammasome activation in LPS/Nigericin induced mouse BMDM cells assessed as suppression of caspase-1 secretion preincubated with LPS for 3 hrs followed by compound addition for 40 mins and further stimulated with nigericin for 40 mins by Western blot analysis; type: cell-based; conditions: dose 0.25-1 µM, time 80.0 min
NACHT, LRR and PYD domains-containing protein 3 (Mus musculus), sequence (Q8R4B8 whole entry, the tested form may be a part): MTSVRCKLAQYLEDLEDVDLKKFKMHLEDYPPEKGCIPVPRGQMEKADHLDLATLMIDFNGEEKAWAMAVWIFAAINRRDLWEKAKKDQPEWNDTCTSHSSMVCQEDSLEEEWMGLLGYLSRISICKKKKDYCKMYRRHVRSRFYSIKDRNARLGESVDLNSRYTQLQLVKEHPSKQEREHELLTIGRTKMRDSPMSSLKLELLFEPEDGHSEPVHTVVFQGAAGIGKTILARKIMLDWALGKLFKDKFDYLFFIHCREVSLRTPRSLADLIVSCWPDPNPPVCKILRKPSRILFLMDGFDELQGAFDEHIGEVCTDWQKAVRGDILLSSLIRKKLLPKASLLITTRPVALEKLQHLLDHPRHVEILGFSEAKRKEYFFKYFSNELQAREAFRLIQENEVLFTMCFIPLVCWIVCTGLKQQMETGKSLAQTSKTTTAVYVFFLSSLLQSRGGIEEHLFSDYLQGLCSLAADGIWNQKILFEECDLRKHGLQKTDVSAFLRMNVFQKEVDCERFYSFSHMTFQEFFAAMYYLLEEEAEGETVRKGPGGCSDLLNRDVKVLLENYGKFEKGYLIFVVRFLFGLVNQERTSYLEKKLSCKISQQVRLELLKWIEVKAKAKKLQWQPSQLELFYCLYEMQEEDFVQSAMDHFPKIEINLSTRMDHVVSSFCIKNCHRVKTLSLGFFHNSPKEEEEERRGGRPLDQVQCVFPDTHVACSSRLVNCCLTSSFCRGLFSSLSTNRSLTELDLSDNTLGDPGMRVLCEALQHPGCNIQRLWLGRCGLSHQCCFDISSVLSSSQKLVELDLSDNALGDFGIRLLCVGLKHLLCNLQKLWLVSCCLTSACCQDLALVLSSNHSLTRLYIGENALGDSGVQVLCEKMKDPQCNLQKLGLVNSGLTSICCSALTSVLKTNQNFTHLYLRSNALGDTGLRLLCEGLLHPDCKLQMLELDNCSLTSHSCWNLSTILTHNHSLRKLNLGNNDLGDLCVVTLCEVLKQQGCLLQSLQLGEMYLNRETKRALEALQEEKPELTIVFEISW

[17] = target: Prostaglandin E2 receptor EP2 subtype (Homo sapiens) (UniProt P43116); assay: Activation of EP2 receptor (unknown origin) at 1 uM relative to control
[18] = target: Muscarinic acetylcholine receptor M3 (Homo sapiens) (UniProt P20309); assay: Inhibition of muscarinic M3 receptor (unknown origin) at 1 uM relative to control
[19] = target: Voltage-dependent N-type calcium channel subunit alpha-1B (Homo sapiens) (UniProt Q00975); assay: Inhibition of Cav2.2 (unknown origin) at 1 uM relative to control
THP-1 [20] = assay: Inhibition of pyroptosis in LPS/nigericin induced PMA-differentiated human THP-1 cells assessed as reduction in LDH release at […] preincubated with LPS for 3 hrs followed by compound addition for 40 mins and further stimulated with nigericin for 40 mins by LDH assay; type: functional, cell-based; conditions: dose lower 0.25 µM, time 80.0 min
[21] = target: Sodium-dependent noradrenaline transporter (Homo sapiens) (UniProt P23975); assay: Inhibition of NET (unknown origin) at 1 uM relative to control
[22] = Cytotoxicity against human PBMC cells at 1.25 uM measured after 24 hrs by CCK-8 method; type: toxicity, cell-based
[23] = Drug distribution in C57BL/6 mouse colon at 30 mg/kg, ip measured after 24 hrs by LC-MS/MS analysis; type: ADME, organism-based; conditions: read-out: Drug uptake
[24] = target: P2X purinoceptor 3 (Homo sapiens) (UniProt P56373); assay: Activation of P2X3 (unknown origin) at 1 uM relative to control
P2X purinoceptor 3 (Homo sapiens), sequence (P56373 whole entry, the tested form may be a part): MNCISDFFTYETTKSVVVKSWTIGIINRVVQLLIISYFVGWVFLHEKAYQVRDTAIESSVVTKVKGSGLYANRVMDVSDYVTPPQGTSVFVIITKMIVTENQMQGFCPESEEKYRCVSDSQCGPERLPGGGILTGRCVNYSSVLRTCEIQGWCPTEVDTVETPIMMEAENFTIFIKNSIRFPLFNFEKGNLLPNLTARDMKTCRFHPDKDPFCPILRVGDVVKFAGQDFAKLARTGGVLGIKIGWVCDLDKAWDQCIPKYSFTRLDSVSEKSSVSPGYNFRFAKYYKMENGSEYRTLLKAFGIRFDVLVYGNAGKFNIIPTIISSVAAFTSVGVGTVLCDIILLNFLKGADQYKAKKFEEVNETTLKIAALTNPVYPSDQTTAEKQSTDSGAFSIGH

[25] = target: NACHT, LRR and PYD domains-containing protein 3 (Mus musculus) (UniProt Q8R4B8); assay: Inhibition of NLRP3 inflammasome activation in LPS/Nigericin induced mouse BMDM cells assessed as effect on pro-IL-1 beta expression at 0.25 to 1 uM preincubated with LPS for 3 hrs followed by compound addition for 40 mins and further stimulated with nigericin for 40 mins by Western blot analysis; type: cell-based; conditions: dose 0.25-1 µM, time 80.0 min
Cytochrome P450 2B6 = Cytochrome P450 2B6 (Homo sapiens, UniProt P20813); assay: Inhibition of CYP2B6 in human liver microsomes preincubated for 5 mins followed by NADPH addition and measured after 30 to 60 mins by LC-MS/MS analysis; type: ADME, Microsome
[26] = target: Substance-P receptor (Homo sapiens) (UniProt P25103); assay: Inhibition of NK1 receptor (unknown origin) at 1 uM relative to control
Cytochrome P450 1A2 = Cytochrome P450 1A2 (Homo sapiens, UniProt P05177); assay: Inhibition of CYP1A2 in human liver microsomes using phenacetin as substrate preincubated for 5 mins followed by NADPH addition and measured after 30 to 60 mins by LC-MS/MS analysis; type: ADME, Microsome
Cytochrome P450 1A2, sequence (P05177 whole entry): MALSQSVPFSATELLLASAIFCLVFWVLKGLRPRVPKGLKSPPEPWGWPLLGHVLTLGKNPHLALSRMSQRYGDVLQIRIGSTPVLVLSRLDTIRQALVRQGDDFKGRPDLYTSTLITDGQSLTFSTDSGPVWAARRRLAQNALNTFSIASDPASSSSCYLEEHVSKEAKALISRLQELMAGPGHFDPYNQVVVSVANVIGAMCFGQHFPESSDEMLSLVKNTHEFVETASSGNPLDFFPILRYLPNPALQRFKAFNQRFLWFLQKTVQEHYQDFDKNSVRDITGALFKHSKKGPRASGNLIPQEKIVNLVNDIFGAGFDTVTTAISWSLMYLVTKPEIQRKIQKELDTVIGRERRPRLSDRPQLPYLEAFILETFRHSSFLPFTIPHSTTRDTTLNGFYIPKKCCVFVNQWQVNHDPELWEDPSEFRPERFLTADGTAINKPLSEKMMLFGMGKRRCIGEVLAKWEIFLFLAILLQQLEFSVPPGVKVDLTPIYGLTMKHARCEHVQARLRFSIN

[27] = target: Substance-K receptor (Homo sapiens) (UniProt P21452); assay: Inhibition of NK2 receptor (unknown origin) at 1 uM relative to control
Cytochrome P450 2E1 = Cytochrome P450 2E1 (Homo sapiens, UniProt P05181); assay: Inhibition of CYP2E1 in human liver microsomes using chlorzoxazone as substrate preincubated for 5 mins followed by NADPH addition and measured after 30 to 60 mins by LC-MS/MS analysis; type: ADME, Microsome
[28] = target: P2X purinoceptor 3 (Homo sapiens) (UniProt P56373); assay: Inhibition of P2X3 (unknown origin) at 1 uM relative to control
[29] = target: Transient receptor potential cation channel subfamily V member 1 (Homo sapiens) (UniProt Q8NER1); assay: Activation of TRPV1 (unknown origin) at 1 uM relative to control
[30] = target: 5-hydroxytryptamine receptor 7 (Homo sapiens) (UniProt P34969); assay: Inhibition of 5-HT7 receptor (unknown origin) at 1 uM relative to control
5-hydroxytryptamine receptor 7 (Homo sapiens), sequence (P34969 whole entry): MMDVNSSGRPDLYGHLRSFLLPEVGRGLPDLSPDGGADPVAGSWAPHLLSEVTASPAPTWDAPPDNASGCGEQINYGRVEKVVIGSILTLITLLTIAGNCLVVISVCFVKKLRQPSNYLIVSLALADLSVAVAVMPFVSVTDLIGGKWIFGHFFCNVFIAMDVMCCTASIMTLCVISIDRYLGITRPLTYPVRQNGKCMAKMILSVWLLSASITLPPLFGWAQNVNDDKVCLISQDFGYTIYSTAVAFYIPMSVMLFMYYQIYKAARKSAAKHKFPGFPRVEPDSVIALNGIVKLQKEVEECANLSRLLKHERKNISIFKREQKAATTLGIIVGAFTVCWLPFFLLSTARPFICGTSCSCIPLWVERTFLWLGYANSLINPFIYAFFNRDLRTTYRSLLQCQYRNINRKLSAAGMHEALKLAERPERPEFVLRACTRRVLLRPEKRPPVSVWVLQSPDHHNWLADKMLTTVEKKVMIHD

[31] = target: Androgen receptor (Homo sapiens) (UniProt P10275); assay: Inhibition of Androgen receptor (unknown origin) at 1 uM relative to control
BMDM [32] = assay: Cytotoxicity against mouse BMDM cells at 4 uM measured after 24 hrs by CCK-8 method; type: toxicity, cell-based

Substance-P receptor (Homo sapiens), sequence (P25103 whole entry): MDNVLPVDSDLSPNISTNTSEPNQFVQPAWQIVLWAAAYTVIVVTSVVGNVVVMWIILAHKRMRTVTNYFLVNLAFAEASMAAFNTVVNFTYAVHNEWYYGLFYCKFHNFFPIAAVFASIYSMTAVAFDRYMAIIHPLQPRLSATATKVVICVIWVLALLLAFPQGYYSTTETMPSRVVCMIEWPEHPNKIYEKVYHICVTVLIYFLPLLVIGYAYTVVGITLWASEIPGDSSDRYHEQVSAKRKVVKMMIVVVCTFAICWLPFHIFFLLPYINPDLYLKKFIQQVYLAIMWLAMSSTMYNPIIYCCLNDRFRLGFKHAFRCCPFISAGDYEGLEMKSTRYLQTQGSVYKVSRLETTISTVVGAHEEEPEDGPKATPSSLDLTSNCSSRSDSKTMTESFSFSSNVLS

With `C=C1C(=O)O[C@@H]2C[C@@]3(C)CC[C@@H](OC(=O)c4cnc(Cl)cc4Cl)C(=C)[C@@H]3C[C@H]12` the Activity [1] was under 50%, the Activity [2] was under 50% and the inhibition (BMDM [3]) was “Active”. For the same molecule, the concentration at 24 h [4] was 1.65 ng/mL, the Activity (Mus musculus [5]) was “Active” and the Activity (Mus musculus [6]) was “Active”. The Activity (BMDM [7]) was “Active”, the Activity [8] was under 50% and the Tmax [9] was 0.78 h. For the same molecule, the inhibition (THP-1 [10]) was “Active”, the Activity [11] was under 50% and the half-life [12] was 6.83 h. For the same molecule, the IC50 (Cytochrome P450 2D6) was over 100 µM, the Activity [13] was “Non-Toxic” and the Activity [14] was under 50%. The inhibition [15] was under 50%, the inhibition [16] was “Dose-Dependent Effect” and the Activity [17] was under 50%. For the same molecule, the inhibition [18] was under 50%, the inhibition [19] was under 50% and the inhibition (THP-1 [20]) was “Active”. The inhibition [21] was under 50%, the Activity [22] was “Toxic” and the concentration at 24 h [23] was 81.3 ng/g. For the same molecule, the Activity [24] was under 50%, the inhibition [25] was “inactive” and the IC50 (Cytochrome P450 2B6) was over 100 µM. It also gave an inhibition [26] of under 50%, an IC50 (Cytochrome P450 1A2) of over 100 µM and an inhibition [27] of under 50%. It also gave an IC50 (Cytochrome P450 2E1) of over 100 µM, an inhibition [28] of under 50% and an Activity [29] of under 50%. For the same molecule, the inhibition [30] was under 50%, the inhibition [31] was under 50% and the Activity (BMDM [32]) was “Toxic”.

Source: ChEMBL document CHEMBL5543172, “Novel Isoalantolactone-Based Derivatives as Potent NLRP3 Inflammasome Inhibitors: Design, Synthesis, and Biological Characterization” (J Med Chem, 2024)
